Assays:
[1] = tested on: guinea pig JH4 cells; test: Reversal of serum-deprivation growth arrest, BrdU labeling; type: cell-based
From the text: Cells were counted under fluorescence microscopy. The combination of lipids and p27^kip1. AS reversed growth arrest to 40% of that seen with 10% FBS stimulation (p<0.0001). (+) FBS; (−) no FBS; (AS) antisense oligonucleotide; (lipid) lipofection.
Cultures of cell lines were established that are responsive to p27^Kip1 antisense oligonucleotides (ON) during the period of serum withdrawal and growth arrest. These cultures include a guinea pig fibroblast line (JH4). Lipofection of the 16 mer antisense ON (having the nucleic acid sequence set forth in SEQ ID NO:20) reversed growth arrest in the JH4 cell line to over 40% of normal.

[2] = tested on: organ of Corti; test: BrdU-labeled cells in the organ of Corti of p27^Kip1 +/+, +/−, −/− mice after amikacin lesioning; type: in vivo; conditions: for number of BrdU labeled cells in the organ of Corti: 1000 μm length of sensory epithelium, apical half of cochlea, ±s.d.
Experimental: To determine whether auditory hair cells were being produced after the onset of hearing at postnatal day 10, two-week old p27^Kip1 −/−, +/−, +/+ mice (P10-12) received three daily systemic injections of bromodeoxyuridine (BrdU; 30 mg/kg/s.c), a nucleotide analog which is incorporated into proliferating cells during S phase. Mice were then permitted to recover for two-days or two-weeks without further injections. BrdU positive HCs were identified with immunocytochemistry using light and fluorescence microscopy. Cochlea were also labeled with antibodies against myosin-VI and myosin-VIIa. In two-week old p27^Kip1 −/− cochlea that were recovered for 2d after the last injection, no BrdU/myosin-VIIa positive cells were observed among the BrdU positive cells. However, in four-week old p27^Kip1 −/− cochlea that were recovered for 14 days after the last injection, BrdU/myosin-VIIa positive HCs were observed. Most of those double labeled were IHCs. This qualitative finding is similar to our quantitative assessments of IHCs and OHCs numbers. p27^Kip1 +/−, +/+ mice were completely devoid of BrdU positive cells at 2d and 14d of recovery. […] Counts were performed on a 1000 μm length of sensory epithelium taken in the apical half of the cochlea (±s.d.). Proliferation in the BrdU groups were compared across +/+, +/−and −/−. Proliferation in the BrdU/Amikacin group was compared with that in the BrdU only group of the same genotype. Statistical significance was determined using ANOVA.
To ascertain whether auditory HCs could be regenerated, HCs were lesioned using systemic injections of amikacin sulfate (P7-P12) and then injected with BrdU (P10-12). Mice were sacrificed either 2 d or 14 d after the last injection. The effects of an amikacin lesioning were at least two-fold. First, in both p27^Kip1 −/− and +/− mice, the number of BrdU positive cells increased following amikacin/BrdU vs BrdU alone treatment. […] Evidence of HC regeneration was confirmed by sectioning the labeled cochlea. Second, a greater number of BrdU positive HCs were observed following amikacin lesioning in p27^Kip1 −/− cochlea. The majority of the BrdU positive HCs appeared in the regions of the cochlea where the amikacin sulfate had injured or killed HCs (in the basal half of the cochlea).

[3] = tested on: auditory function; test: Auditory brainstem response (ABR) threshold after amikacin sulfate treatment; type: in vivo, mice; conditions: p27 heterozygotes, two and four weeks after amikacin sulfate treatment; p<0.001
Experimental: Experimental animals were treated the same as the mice described in the experiments reported in Table 2 herein, except that, in the present example, there was an additional recovery time point at four weeks after amikacin treatment. Auditory function was measured using the auditory brainstem response (ABR) using subcutaneous recording electrodes placed on three head points in Isofluorane anesthetized mice. The sound intensity threshold was determined by presenting single frequencies as different sound intensities (intensity measured in decibels). The higher the tone intensity that is required to elicit the ABR, the higher the auditory threshold, i.e., the worse the auditory function.

[4] = tested on: utricular, saccular and cristae sensory epithelium; test: BrdU-labeled cells in the vestibular organs of p27^Kip1 mice after amikacin/BrdU; type: in vivo; conditions: for number of BrdU labeled cells, utricle: BrdU/Amikacin (500 mg/kg/d s.c., P7-P12)
Experimental: To determine whether p27^Kip1 plays a similar role in the peripheral vestibular system, the proliferative capacity of the utricle, saccule and cristae of p27^Kip1 +/−, and +/+ mice was examined. Mice (P7-P12) received systemic injections of amikacin sulfate (500 mg/kg/d/s.c) for six consecutive days that were combined with injections of the replication marker, bromodeoxyuridine (BrdU; 30 mg/kg/d/s.c) between P10-P12. Mice were also injected with BrdU alone in a similar fashion. Mice were then sacrificed 14 d later and the vestibular sensory organs were fixed, dissected and processed for BrdU immunocytochemistry. BrdU positive nuclei were counted from whole mounts using light microscopy and Nomarski optics. Selected organs were further processed for cross section analysis.
BrdU positive HCs were also observed in both otolithic organs. Most of these regenerated HC appeared as type I HCs in that they were contacted by a calyx. […] In p27^Kip1 +/+ mice, no BrdU positive nuclei in either the saccule or utricle were observed after amikacin/BrdU or BrdU alone. […] Counts were performed from whole utricular, saccular and cristae sensory epithelium (±s.d.). In the BrdU group, statistical significance was determined by comparing proliferation levels in the same sensory organ across +/+, +/− and −/−. In the BrdU/Amikacin group, statistical significance was determined by comparing proliferation levels in the same sensory organ of the same genotype. Statistical significance was determined using ANOVA.

[5] = tested on: supporting cells of wild type organ of Corti explants; test: p27^Kip1 antisense oligonucleotide treatment of neomycin-lesioned organ of Corti explants, BrdU immunocytochemistry; type: cell-based, mouse
Experimental: (§1) To test whether inhibition of the p27^Kip1 gene product in p27^Kip1 +/+ cochlea would allow non-mitotic supporting cells to proliferate, wild type organ of Corti explants (P7-P10, at age of hearing onset) were treated with p27^Kip1 antisense oligonucleotides (ONs). Explant cultures were established by dissecting the organ of Corti from the cochlea, removing the tectorial membrane and adhering the organ of Corti to a glass slide coated with Cell-tak and maintained at 37° C. in a 5% CO2 environment. The explant was then exposed to an ototoxic antibiotic (1 mM neomycin sulfate) for 48 h which killed >95% of the HCs (Kil, J., et al., ARO abs. 21:672 (1998)). The neomycin containing media was then removed and p27^Kip1 antisense oligonucleotides (Ons) (40 nM) were administered using a cationic lipid (lipofection) for a period of 24-48 hr. Some of these living cultures were examined under fluorescence to detect the presence of FITC conjugated antisense ON.
FITC-positive supporting cells were detected in 18-24 h and increased in number and fluorescent intensity between 24-48 h. Cultures were aldehyde fixed and processed for BrdU immunocytochemistry. […] BrdU-positive doublets appeared in antisense ON treated cultures that were recovered for an additional 24 hr without antisense ONs. […] Lipofection-only treated cultures contained very low levels of BrdU-labeled supporting cells.

[6] = tested on: hair cells of organ of Corti explant; conditions: 1 mM neomycin sulfate for 48 h; P7-P10 wild type explants; cited from earlier work
[7] = tested on: hair cells of organ of Corti explant; test: Hair cell lesioning of organ of Corti cultures with neomycin; type: cell-based, mouse; conditions: 1 mM neomycin, organotypic cultures, 48 h, calbindin immunoreactivity and cross-section analysis
Experimental: as §1, with “The neomycin containing media was then removed and p27^Kip1 antisense oligonucleotides (Ons) (40 nM) were administered using a cationic lipid (lipofection) for a period of 24-48 hr.” left out, “ON. […]” for “ON.”
An aminoglycoside antibiotic lesion of the hair-cells is then be combined with subsequent lipofection. […] Unlike cultures derived from neonatal mice, the two-week old mouse which has developed auditory function is more easily affected by this concentration of neomycin resulting in a greater than 95% loss of hair-cells as determined by calbindin immunoreactivities and plastic cross-section analysis. […] This may necessitate the use of a commercially available GFP antibody (Clonetech) to enhance the fluorescence of lipofected cells.

[8] = p27^Kip1 +/+ mice, BrdU/Amikacin, 14 d recovery, whole sensory epithelium, ±s.d.
[9] = p27^Kip1 +/− mice, BrdU/Amikacin, 14 d recovery, whole sensory epithelium, ±s.d.
[10] = p27^Kip1 −/− mice, BrdU/Amikacin, 14 d recovery, whole sensory epithelium, ±s.d.

16 mer antisense ON: 16 mer p27^Kip1 antisense ON having the nucleic acid sequence set forth in SEQ ID NO:20 (antisense TGGCTCTCCTGCGCC; listed as DNA, chemistry not given here)
reversal of growth arrest ([1]; lipofection, serum withdrawal): over 40 % of normal | reversal of growth arrest (BrdU-labeled cells) ([1]; serum deprivation 24 hours, BrdU pulse last 4 hours, combination of lipids and AS, p<0.0001): 40 % of that seen with 10% FBS stimulation

NCC[C@H](O)C(=O)N[C@@H]1C[C@H](N)[C@@H](O[C@H]2O[C@H](CN)[C@@H](O)[C@H](O)[C@H]2O)[C@H](O)[C@H]1O[C@H]1O[C@H](CO)[C@@H](O)[C@H](N)[C@H]1O.O=S(=O)(O)O.O=S(=O)(O)O [Amikacin, amikacin sulfate]
number of BrdU positive cells following amikacin/BrdU vs BrdU alone treatment ([2]; cochlea of both p27^Kip1 −/− and +/− mice): increased | number of BrdU labeled cells in the organ of Corti ([2]; p27^Kip1 +/+ mice, BrdU/Amikacin + 2d recovery): 0.0 ± 0.0 | number of BrdU labeled cells in the organ of Corti ([2]; p27^Kip1 +/+ mice, BrdU/Amikacin + 14d recovery): 0.0 ± 0.0 | number of BrdU labeled cells in the organ of Corti ([2]; p27^Kip1 +/− mice, BrdU/Amikacin + 2d recovery): 4.7 ± 7.6 | number of BrdU labeled cells in the organ of Corti ([2]; p27^Kip1 +/− mice, BrdU/Amikacin + 14d recovery): 10.5 ± 12.0 | number of BrdU labeled cells in the organ of Corti ([2]; p27^Kip1 −/− mice, BrdU/Amikacin + 2d recovery): 96.3 ± 9.5 | number of BrdU labeled cells in the organ of Corti ([2]; p27^Kip1 −/− mice, BrdU/Amikacin + 14d recovery): 137.4 ± 17.0 | p27 heterozygotes showing evidence of inner cell proliferative regeneration (BrdU-labeling and morphologic criteria) ([2]; p27 heterozygotes of Table 2, amikacin treated): five out of ten | BrdU positive cells in wt cochlea ([2]; wt cochlea following amikacin/BrdU): No BrdU positive cells were observed | auditory improvement (ABR threshold) [3]: five out of eight | number of BrdU labeled cells, utricle ([4]; p27^Kip1 +/+ mice, 14 d recovery, whole sensory epithelium, ±s.d.): 0.0 ± 0.0 | number of BrdU labeled cells, cristae [4, 8]: 0.0 ± 0.0 | number of BrdU labeled cells, saccule [4, 8]: 0.0 ± 0.0 | proliferation in the saccule or utricle after combined amikacin/BrdU treatment ([4]; p27^Kip1 +/− mice): a very low level of proliferation was induced | number of BrdU labeled cells, utricle ([4]; p27^Kip1 +/− mice, 14 d recovery, whole sensory epithelium, ±s.d.): 0.4 ± 0.7 | number of BrdU labeled cells, cristae [4, 9]: 0.0 ± 0.0 | number of BrdU labeled cells, saccule [4, 9]: 1.6 ± 1.9 | number of BrdU labeled cells, utricle ([4]; p27^Kip1 −/− mice, 14 d recovery, whole sensory epithelium, ±s.d.): 45.5 ± 19.2 | number of BrdU labeled cells, cristae (sub-head printed as utricle) [4, 10]: 0.0 ± 0.0 | number of BrdU labeled cells, saccule [4, 10]: 51.8 ± 15.3 | increase in the number of BrdU positive cells after combined amikacin/BrdU treatment ([4]; p27^Kip1 −/− mice, saccule and utricle (both organs), versus BrdU only): 40 fold

antisense ON: p27^Kip1 antisense oligonucleotides administered using a cationic lipid (lipofection) to organ of Corti explants (antisense TGGCTCTCCTGCGCC; FITC conjugated, delivered with cationic lipid, further chemistry not given here)
BrdU-positive supporting cells ([5]; 40 nM antisense ON by lipofection, after 24 h of treatment, after 1 mM neomycin 48 h): appeared in most cochlear cultures | time at which FITC-positive supporting cells were detected ([5]; FITC conjugated antisense ON, lipofection, living cultures under fluorescence): 18 to 24 h | BrdU-positive doublets ([5]; antisense ON treated cultures recovered for an additional 24 hr without antisense ONs): appeared

neomycin sulfate
HCs killed [6]: > 95% | loss of hair cells [7]: greater than 95% | loss of hair cells ([7]; listed as neomycin): 95%

Reference: US7741303B2, “Stimulation of cellular regeneration and differentiation in the inner ear” (Sound Pharmaceuticals Incorporated, priority 1998, dated 2010)
